Bounds are passed on as bounds.

The test has as its system Bmi-1. Briefly: Sandwich ELISA Assay (Bmi-1 ELISA in HT-1080 cells). The format is cell-based, human. The method, boiled down:
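Lysate Bmi-1 was quantified against a recombinant GST-Bmi-1 standard (0-8000 pg/mL) by sandwich ELISA read at OD450 with OD570 reference. The ELISA used mouse monoclonal capture, rabbit anti-Bmi-1, HRP anti-rabbit IgG and TMB. Before lysis, HT-1080 cells seeded at 8000/well were exposed to compounds for 40-48 h at 37°C with 0.5% final DMSO.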
Molecule `CCc1nc2ncccn2c1-c1csc(Nc2ccc(I)cc2)n1` [Cpd 149, 4-(2-ethylimidazo[1,2-a]pyrimidin-3-yl)-N-(4-iodophenyl)-1,3-thiazol-2-amine] registered an IC50 of under 500 nM. For the molecule `CCc1nc2ncccn2c1-c1csc(Nc2ccc(C(C)=O)cc2)n1` [Cpd 150, 1-(4-{[4-(2-ethylimidazo[1,2-a]pyrimidin-3-yl)-1,3-thiazol-2-yl]amino}phenyl)ethanone], the IC50 was under 500 nM.

Take `CCc1nc2ncccn2c1-c1csc(Nc2ccc3c(c2)OCO3)n1` [Cpd 151, N-(1,3-benzodioxol-5-yl)-4-(2-ethylimidazo[1,2-a]pyrimidin-3-yl)-1,3-thiazol-2-amine]: the IC50 was under 500 nM. `CCc1nc2ncccn2c1-c1csc(Nc2ccc(OC)c(F)c2)n1` [Cpd 152, 4-(2-ethylimidazo[1,2-a]pyrimidin-3-yl)-N-(3-fluoro-4-methoxyphenyl)-1,3-thiazol-2-amine] displayed an IC50 of under 500 nM. `CCc1nc2ncccn2c1-c1csc(Nc2ccc(OC)c(Cl)c2)n1` [Cpd 153, N-(3-chloro-4-methoxyphenyl)-4-(2-ethylimidazo[1,2-a]pyrimidin-3-yl)-1,3-thiazol-2-amine]: the IC50 is under 500 nM. In turn, `FC(F)(F)c1nc2ncccn2c1-c1csc(Nc2ccc3c(c2)OCO3)n1` [Cpd 154, N-(1,3-benzodioxol-5-yl)-4-[2-(trifluoromethyl)imidazo[1,2-a]pyrimidin-3-yl]-1,3-thiazol-2-amine] showed an IC50 of under 500 nM. As to `COc1ccc(Nc2nc(-c3c(C)nc4ccc(F)cn34)cs2)cc1F` [Cpd 155, N-(3-fluoro-4-methoxyphenyl)-4-(6-fluoro-2-methylimidazo[1,2-a]pyridin-3-yl)-1,3-thiazol-2-amine], the IC50 was under 500 nM. `Cc1nc2ccc(F)cn2c1-c1csc(Nc2ccc(I)cc2)n1` [Cpd 156, 4-(6-fluoro-2-methylimidazo[1,2-a]pyridine-3-yl)-N-(4-iodophenyl)-1,3-thiazol-2-amine] registered an IC50 of under 500 nM. Under `Cc1nc2ccc(F)cn2c1-c1csc(Nc2ccc(N(C)C)cc2)n1` [Cpd 157, N′-[4-(6-fluoro-2-methylimidazo[1,2-a]pyridin-3-yl)-1,3-thiazol-2-yl]-N,N-dimethylbenzene-1,4-diamine] stands under 500 nM; under `Cc1nc2ccc(F)cn2c1-c1csc(Nc2ccc3c(c2)OCO3)n1` [Cpd 158, N-(1,3-benzodioxol-5-yl)-4-(6-fluoro-2-methylimidazo[1,2-a]pyridin-3-yl)-1,3-thiazol-2-amine], under 500 nM. Under `CC(=O)c1ccc(Nc2nc(-c3c(C)nc4ccc(F)cn34)cs2)cc1` [Cpd 159, 1-(4-{[4-(6-fluoro-2-methylimidazo[1,2-a]pyridin-3-yl)-1,3-thiazol-2-yl]amino}phenyl)ethanone] stands under 500 nM; under `COc1ccc(Nc2nc(-c3c(C)nc4ccc(F)cn34)cs2)cc1` [Cpd 160, 4-(6-fluoro-2-methylimidazo[1,2-a]pyridin-3-yl)-N-(4-methoxyphenyl)-1,3-thiazol-2-amine], under 500 nM.

As to `Cc1nc2ccc(F)cn2c1-c1csc(Nc2ccc(Cl)cc2)n1` [Cpd 161, N-(4-chlorophenyl)-4-(6-fluoro-2-methylimidazo[1,2-a]pyridin-3-yl)-1,3-thiazol-2-amine], the IC50 was under 500 nM. The result for `Cc1nc2ccc(F)cn2c1-c1csc(Nc2ccc(Br)cc2)n1` [Cpd 162, N-(4-bromophenyl)-4-(6-fluoro-2-methylimidazo[1,2-a]pyridin-3-yl)-1,3-thiazol-2-amine] reads under 500 nM.

In turn, `CCOc1ccc(Nc2nc(-c3c(C)nc4ccc(F)cn34)cs2)cc1` [Cpd 163, N-(4-ethoxyphenyl)-4-(6-fluoro-2-methylimidazo[1,2-a]pyridin-3-yl)-1,3-thiazol-2-amine] returned an IC50 of under 500 nM. With `Cc1nc2ccc(F)cn2c1-c1csc(Nc2ccc(C(C)(C)C)cc2)n1` [Cpd 164, N-(4-tert-butylphenyl)-4-(6-fluoro-2-methylimidazo[1,2-a]pyridin-3-yl)-1,3-thiazol-2-amine], the IC50 was under 500 nM. Under `Cc1nc2ccc(F)cn2c1-c1csc(Nc2ccc(Br)cc2Cl)n1` [Cpd 165, N-(4-bromo-2-chlorophenyl)-4-(6-fluoro-2-methylimidazo[1,2-a]pyridin-3-yl)-1,3-thiazol-2-amine] stands under 500 nM. The result for `Fc1ccccc1Nc1nccc(-c2cnc3ccccn23)n1` [Cpd 166, N-(2-fluorophenyl)-4-(imidazo[1,2-a]pyridin-3-yl)pyrimidin-2-amine] reads under 500 nM. Take `CC(=O)c1ccc(N(C)c2nccc(-c3c(C)nc4ccccn34)n2)cc1` [Cpd 167, 1-(4-{methyl[4-(2-methylimidazo[1,2-a]pyridin-3-yl)pyrimidin-2-yl]amino}phenyl)ethanone]: the half-maximal inhibitory concentration (IC50) is under 500 nM. For the molecule `Cc1ccc(Nc2nccc(-c3c(C)nc4ncccn34)n2)cc1` [Cpd 168, 4-(2-methylimidazo[1,2-a]pyrimidin-3-yl)-N-(4-methylphenyl)pyrimidin-2-amine], the IC50 was under 500 nM.

`Cc1ccc(Nc2nccc(-c3c(C)nc4ccccn34)n2)cc1` [Cpd 169, 4-(2-methylimidazo[1,2-a]pyridin-3-yl)-N-(4-methylphenyl)pyrimidin-2-amine] gave a 50% inhibitory concentration (IC50) of under 500 nM. `Cc1ccc(N(C)c2nccc(-c3c(C)nc4ncccn34)n2)cc1` [Cpd 170, N-methyl-4-(2-methylimidazo[1,2-a]pyrimidin-3-yl)-N-(4-methylphenyl)pyrimidin-2-amine] had an IC50 of under 500 nM. For the molecule `CCCc1nc2ccccn2c1-c1csc(Nc2ccc(OC)c(F)c2)n1` [Cpd 171, N-(3-fluoro-4-methoxyphenyl)-4-(2-propylimidazo[1,2-a]pyridin-3-yl)-1,3-thiazol-2-amine], the IC50 is under 500 nM. In turn, `CCCc1nc2ccccn2c1-c1csc(Nc2ccc(OC)c(Cl)c2)n1` [Cpd 172, N-(3-chloro-4-methoxyphenyl)-4-(2-propylimidazo[1,2-a]pyridin-3-yl)-1,3-thiazol-2-amine] came in with an IC50 of under 500 nM. Consider `CCCc1nc2ccccn2c1-c1csc(Nc2ccc(OCC)cc2)n1` [Cpd 173, N-(4-ethoxyphenyl)-4-(2-propylimidazo[1,2-a]pyridin-3-yl)-1,3-thiazol-2-amine], for which the IC50 was under 500 nM. Under `CCCc1nc2ccccn2c1-c1csc(Nc2ccc(I)cc2)n1` [Cpd 174, N-(4-iodophenyl)-4-(2-propylimidazo[1,2-a]pyridin-3-yl)-1,3-thiazol-2-amine] stands under 500 nM.

Molecule `CCCc1nc2ccccn2c1-c1csc(Nc2ccc3c(c2)OCO3)n1` [Cpd 175, N-(1,3-benzodioxol-5-yl)-4-(2-propylimidazo[1,2-a]pyridin-3-yl)-1,3-thiazol-2-amine] returned a concentration for half-maximal inhibition (IC50) of under 500 nM. On to `CCCc1nc2ccccn2c1-c1csc(Nc2ccc(N(C)C)cc2)n1` [Cpd 176, N,N-dimethyl-N′-[4-(2-propylimidazo[1,2-a]pyridin-3-yl)-1,3-thiazol-2-yl]benzene-1,4-diamine], for which the IC50 was under 500 nM. In turn, `CCCc1nc2ccccn2c1-c1csc(Nc2ccc(C(C)=O)cc2)n1` [Cpd 177, 1-(4-{[4-(2-propylimidazo[1,2-a]pyridin-3-yl)-1,3-thiazol-2-yl]amino}phenyl)ethanone] displayed an IC50 of under 500 nM.

In the case of `CCCc1nc2ccccn2c1-c1csc(Nc2ccc(Cl)cc2)n1` [Cpd 178, N-(4-chlorophenyl)-4-(2-propylimidazo[1,2-a]pyridin-3-yl)-1,3-thiazol-2-amine], the IC50 is under 500 nM. Under `CCCc1nc2ccccn2c1-c1csc(Nc2ccc(Br)cc2)n1` [Cpd 179, N-(4-bromophenyl)-4-(2-propylimidazo[1,2-a]pyridin-3-yl)-1,3-thiazol-2-amine] stands under 500 nM. The molecule `CCCc1nc2ccccn2c1-c1csc(Nc2ccc(OC)cc2)n1` [Cpd 180, N-(4-methoxyphenyl)-4-(2-propylimidazo[1,2-a]pyridin-3-yl)-1,3-thiazol-2-amine] displayed an IC50 of under 500 nM. On to `CCCc1nc2ncccn2c1-c1csc(Nc2ccc(OC)c(F)c2)n1` [Cpd 181, N-(3-fluoro-4-methoxyphenyl)-4-(2-propylimidazo[1,2-a]pyrimidin-3-yl)-1,3-thiazol-2-amine], for which the IC50 is under 500 nM. `CCCc1nc2ncccn2c1-c1csc(Nc2ccc3c(c2)OCO3)n1` [Cpd 182, N-(1,3-benzodioxol-5-yl)-4-(2-propylimidazo[1,2-a]pyrimidin-3-yl)-1,3-thiazol-2-amine] had an IC50 of under 500 nM.

Regarding `CCCc1nc2ncccn2c1-c1csc(Nc2ccc(N(C)C)cc2)n1` [Cpd 183, N,N-dimethyl-N′-[4-(2-propylimidazo[1,2-a]pyrimidin-3-yl)-1,3-thiazol-2-yl]benzene-1,4-diamine], the IC50 was under 500 nM. In turn, `CCCc1nc2ncccn2c1-c1csc(Nc2ccc(Br)cc2)n1` [Cpd 184, N-(4-bromophenyl)-4-(2-propylimidazo[1,2-a]pyrimidin-3-yl)-1,3-thiazol-2-amine] came in with an IC50 of under 500 nM.

For `CCCc1nc2ncccn2c1-c1csc(Nc2ccc(I)cc2)n1` [Cpd 185, N-(4-iodophenyl)-4-(2-propylimidazo[1,2-a]pyrimidin-3-yl)-1,3-thiazol-2-amine], the IC50 was under 500 nM. `CCCc1nc2ncccn2c1-c1csc(Nc2ccc(OC)cc2)n1` [Cpd 186, N-(4-methoxyphenyl)-4-(2-propylimidazo[1,2-a]pyrimidin-3-yl)-1,3-thiazol-2-amine]: the IC50 was under 500 nM. Regarding `CCCc1nc2ncccn2c1-c1csc(Nc2ccccc2)n1` [Cpd 187, N-phenyl-4-(2-propylimidazo[1,2-a]pyrimidin-3-yl)-1,3-thiazol-2-amine], the IC50 was under 500 nM. `COc1cccc(Nc2nc(-c3c(C)nc4ccccn34)cs2)c1` [Cpd 188, N-(3-methoxyphenyl)-4-(2-methylimidazo[1,2-a]pyridin-3-yl)-1,3-thiazol-2-amine] came in with an IC50 of under 500 nM. Under `Cc1ccc(N(C)c2nccc(-c3c(C)nc4ccccn34)n2)cc1` [Cpd 189, N-methyl-4-(2-methylimidazo[1,2-a]pyridin-3-yl)-N-(4-methylphenyl)pyrimidin-2-amine] stands under 500 nM.

What is called IC50 is the concentration at which inhibition is half-maximal. A higher IC50 goes with weaker potency in that assay.

For the origin of these results see patent US8680113B2, “BMI-1 protein expression modulators” (PTC Therapeutics, Inc., priority 2008, dated 2014).
